Tests used:
rats [1] = test: Bioavailability studies on rats (liver and kidney functions, blood picture, lipid profile); type: in vivo; settings: for Lipid profile: all groups
From the text: The study on rats included five groups, group 1 control, 2 receiving cu, group.2 pyrazinic, group 3 complex with large dose, & group 5 receiving complex with small dose.

fatigue = test: Clinical trials for treatment of fatigue in humans; type: in vivo
[2] = Solubility of the complex in solvents; type: physicochemical
From the text: Solubility: the complex is insoluble in non polar solvents, e.g. benzene, carbon tetrachloride, etc., and insoluble in polar solvents: water, methanol, ethanol, acetone, but soluble in these solvents upon heating in inert atmosphere, to prevent oxidation.

rats [3] = test: Toxicity of the complex (LD50, mortality within 24 hrs); type: in vivo
Protocol: Seventy two rats (250+/−2.0 g b.wt) were randomly located into 12 groups of 6 rats each
Mortality in each group were recorded within 24 hrs. The LD50 was calculated according to Behecens and Karbere (1970)

[4] = system: male infertility (sperm count, motility); test: Male infertility study, 20 patients; type: in vivo, human
[5] = system: stem cells, CD4 and CD8 cells; test: In vivo stem cell, CD4 and CD8 counts before and during medication; settings: before and at regular intervals of medication
From the text: We hypothesized that the drug may have a role in stimulating the stem cells present in the various organs to differentiate. […] In vivo we measured the stem cell count together with CD8 and CD4 cells before, and at regular intervals of medication.

dilated Cardiomyopathy = test: Clinical trials in cardiomyopathy; type: in vivo, human; settings: clinically and in ECHO cardiographic measurements
From the text: Improvement is shown both clinically and in the ECHO cardiographic measurements.

[6] = system: muscle weakness (muscle dystrophies, post stroke weakness); test: Clinical trials for treatment of weakness of muscles; type: in vivo, human
From the text: The complex used in treatment of muscle weakness for different underlying causes (muscle dystrophies post stroke weakness). […] When the patient reaches the optimum dose, onset of improvement in muscle power is observed within hours of drug intake.

[7] = Stability of the solid complex; type: physicochemical
[8] = complex at large and small dose

For `O=C(O)c1cnccn1` [pyrazinic, pyrazinic acid, reference compound], which Lipid profile (rats [1]) is on record?
The Lipid profile was “didn't show significant difference”.

And the “Liver and kidney functions versus control group” value (rats [1]; [8])?
The value was “no significant difference”.

With “[CuCI (pyrazinic acid) 2]. 2H2O [complex]” as the compound, how does the “Agonizing fatigue in Parkinsonism, myositis, disseminated sclerosis” value (fatigue) read?
Its value is “improves markedly”.

And the “Effect in all types of fatigue” value (fatigue)?
The value was “relieved the muscle pain, increased the physical activity and productivity”.

And the “Solubility in non polar solvents” value ([2]; e.g. benzene, carbon tetrachloride)?
The value was “insoluble”.

And the “Solubility in polar solvents” value ([2]; water, methanol, ethanol, acetone)?
The value was “insoluble”.

What about the “Solubility in polar solvents upon heating” value ([2]; water, methanol, ethanol, acetone, heating in inert atmosphere) of the same compound?
Its value is “soluble”.

And the “LD50 (intrapperitoneally)” value (rats [3]; intraperitoneal)?
Its value is 128 mg/kg.

What about the “LD50 (oral)” value (rats [3]; oral) of the same compound?
Its value is 1104.17 mg/kg.

And the Sperm motility ([4]; all cases)?
Its Sperm motility is “significant improvement”.

And the “Healthy babies, azospermic patients” value ([4]; among the seven responding azospermic patients)?
The value was “two of them got healthy babies”.

What about the “Healthy babies, oligospermia” value ([4]; oligospermia cases) of the same compound?
The value was “four cases got also healthy babies”.

And the “Sperm count in azospermic patients” value ([4]; seven out of nine patients, within 6 weeks of treatment)?
Its value is 1.5-3 millions/hpf.

What about the “Sperm count in oligospermia” value ([4]; within 1 month of treatment) of the same compound?
Its value is “doubling of the count”.

And the Lipid profile (rats [1])?
Its Lipid profile is “didn't show significant difference”.

And the “Liver and kidney functions versus control group” value (rats [1]; [8])?
The value was “no significant difference”.

And the “Lymphocytic count (complete blood picture)” value (rats [1]; complex at large and small dose, not exceeding the normal range)?
The value was “increase of lymphocytic count”.

What about the CD4/CD8 [5] of the same compound?
Its CD4/CD8 is “no disturbance”.

And the “CD4 and CD8 number” value [5]?
The value was “increase”.

And the Stem cell count [5]?
The Stem cell count was “significant decrease”.

And the “Cases improved, dilated cardiomyopathy due to other causes” value (dilated Cardiomyopathy)?
The value was 80%.

And the “Improvement of dilated cardiomyopathy secondary to Duchenne muscle dystrophy” value (dilated Cardiomyopathy)?
Its value is “improved all cases”.

What about the “Clinical improvement in DMS patients” value ([6]; affected by age, weight and degree of dystrophy) of the same compound?
Its value is “dose dependant”.

What about the “Onset of improvement in muscle power” value ([6]; at optimum dose, after drug intake) of the same compound?
The value was “within hours”.

What about the Stability [7] of the same compound?
Its Stability is “sufficiently stable when well-dried”.
